Data: ChEMBL document CHEMBL4813948, “Cytotoxic and Anti-Inflammatory Sesquiterpenes from the Whole Plants of Centipeda minima” (J Nat Prod, 2021)

Tests used:
HeLa = test: Cytotoxicity against human HeLa cells assessed as reduction in cell viability incubated for 48 hrs by MTT assay; format: functional, cell-based
HCT-116 = test: Cytotoxicity against human HCT-116 cells assessed as reduction in cell viability incubated for 48 hrs by MTT assay; format: functional, cell-based; conditions: HCT-116, 48 h
HepG2 = test: Cytotoxicity against human HepG2 cells assessed as reduction in cell viability incubated for 48 hrs by MTT assay; format: functional, cell-based; conditions: HepG2, 48 h
RAW264.7 [1] = test: Anti-inflammatory activity in mouse RAW264.7 cells assessed as inhibition of LPS-induced NO production incubated for 24 hrs by Griess reagent based assay; format: functional, cell-based; conditions: RAW264.7, 24 h
RAW264.7 [2] = test: Cytotoxicity against mouse RAW264.7 cells after 24 hrs by MTT assay; format: cell-based; conditions: raw264.7, 24 h

Row | Structure (SMILES) | IC50 (HeLa) [µM] | IC50 (HCT-116) [µM] | IC50 (HepG2) [µM] | IC50 (RAW264.7 [1]) [µM] | Activity (RAW264.7 [2])
1 | C=C1C(=O)O[C@H]2C[C@@H](C)[C@@H]3[C@@H](OC(=O)C(C)C)C[C@@H](OC(=O)/C(C)=C/C)[C@@]3(C)C[C@H]12 | > 10 | > 10 | 8.7 | – | –
2 | C=C1C(=O)O[C@H]2C[C@@H](C)[C@@H]3[C@@H](OC(=O)C(C)C)C[C@@H](OC(=O)CC(C)C)[C@@]3(C)C[C@H]12 | > 10 | > 10 | > 10 | 0.2 | –
3 | C/C=C(/C)C(=O)O[C@H]1[C@@H]2[C@H](C)C(=O)O[C@@H]2C[C@@H](C)[C@@H]2C=CC(=O)[C@]21C [BREVILIN A] | 9.2 | > 10 | > 10 | – | Toxic
4 | C=C1C(=O)O[C@@H]2C[C@@H](C)[C@@H]3C=CC(=O)[C@@]3(C)[C@@H](OC(=O)CC(C)C)[C@H]12 | 2 | 3.3 | 2.6 | 0.2 | –
5 | C=C1C(=O)O[C@H]2C[C@@H](C)[C@@H]3[C@@H](OC(=O)C=C(C)C)C[C@@H](OC(=O)/C(C)=C\C)[C@@]3(C)C[C@H]12 | > 10 | 9.4 | 3.5 | – | –
6 | C=C1C(=O)O[C@H]2C[C@@H](C)[C@@H]3[C@@H](OC(=O)/C(C)=C\C)C[C@@H](OC(=O)CC(C)C)[C@@]3(C)C[C@H]12 | 9.4 | 5.2 | 2.9 | > 10 | –
7 | CC(C)CC(=O)O[C@H]1[C@@H]2[C@H](C)C(=O)O[C@@H]2C[C@@H](C)[C@@H]2C=CC(=O)[C@]21C | 5.5 | 7.2 | > 10 | 1.7 | –
8 | C/C=C(/C)C(=O)O[C@H]1[C@@H]2[C@H](C)C(=O)O[C@@H]2C[C@@H](C)[C@@H]2CCC(=O)[C@]21C | > 10 | > 10 | > 10 | > 10 | –
9 | CC(C)=CC(=O)O[C@H]1[C@@H]2[C@H](C)C(=O)O[C@@H]2C[C@@H](C)[C@@H]2CCC(=O)[C@]21C | > 10 | > 10 | > 10 | – | –
10 | C/C=C(/C)C(=O)O[C@H]1[C@@H]2[C@H](C)C(=O)O[C@@H]2C[C@@H](C)[C@@H]2[C@@H](OCC)CC(=O)[C@]21C | > 10 | > 10 | > 10 | > 10 | –
11 | C=C1C(=O)O[C@@H]2C[C@@H](C)[C@@H]3[C@@H](OC)CC(=O)[C@@]3(C)[C@@H](OC(=O)/C(C)=C\C)[C@H]12 | > 10 | > 10 | > 10 | – | –
12 | CCC(C)C(=O)O[C@H]1[C@@H]2[C@H](C)C(=O)O[C@@H]2C[C@@H](C)[C@@H]2C=CC(=O)[C@]21C (stereo not given in full) | 2.4 | 7.3 | > 10 | 2.4 | –
13 | C=C(C)C(=O)O[C@@H]1[C@@H]2[C@H](C[C@H](C)C3=CCC(=O)[C@@]31C)OC(=O)[C@@H]2C | > 10 | > 10 | > 10 | – | –
14 | C=C1C(=O)O[C@H]2C[C@@H](C)[C@@H]3[C@@H](OC(=O)C(C)C)C[C@@H](OC(=O)C=C(C)C)[C@@]3(C)C[C@H]12 | > 10 | 8.1 | 6.5 | – | –
15 | C=C(C)C(=O)O[C@H]1[C@@H]2[C@H](C)C(=O)O[C@@H]2C[C@@H](C)[C@@H]2CCC(=O)[C@]21C | > 10 | > 10 | > 10 | – | –
16 | C=C1C(=O)O[C@H]2C[C@@H](C)[C@@H]3[C@@H](OC(=O)/C(C)=C/C)C[C@@H](OC(=O)/C(C)=C\C)[C@@]3(C)C[C@H]12 | 7.8 | 6.6 | 4.1 | – | –
17 | C/C=C(/C)C(=O)O[C@H]1[C@@H]2[C@H](C)C(=O)O[C@@H]2C[C@@H](C)[C@@H]2[C@H](OC)CC(=O)[C@]21C | > 10 | > 10 | > 10 | > 10 | –
18 | CC(C)=CC(=O)O[C@H]1[C@@H]2[C@H](C)C(=O)O[C@@H]2C[C@@H](C)C2=CCC(=O)[C@]21C | > 10 | > 10 | > 10 | – | –
19 | C=C1C(=O)O[C@H]2C[C@@H](C)[C@@H]3[C@@H](OC(=O)CC(C)C)C[C@@H](OC(=O)CC(C)C)[C@@]3(C)C[C@H]12 | > 10 | 9.9 | > 10 | 0.1 | –
20 | C=C1C(=O)O[C@@H]2C[C@@H](C)[C@@H]3C=CC(=O)[C@@]3(C)[C@@H](OC(=O)/C(C)=C\C)[C@H]12 | 0.8 | 2.9 | 1.1 | – | –
21 | C=C1C(=O)O[C@@H]2C[C@@H](C)[C@@H]3C=CC(=O)[C@@]3(C)[C@@H](OC(=O)C(C)C)[C@H]12 [HELENALINISOBUTYRATE] | 1.4 | 0.4 | 1.8 | – | –
22 | C=C(C)C(=O)O[C@@H]1C[C@H](OC(=O)C(C)C)[C@H]2[C@H](C)C[C@@H]3OC(=O)C(=C)[C@H]3C[C@@]21C | > 10 | > 10 | > 10 | 3.9 | –
23 | C=C1C(=O)O[C@@H]2C[C@@H](C)[C@@H]3C(OC(=O)/C(C)=C\C)=C[C@@]4(C)O[C@@]34C[C@H]12 | > 10 | > 10 | > 10 | – | –
24 | C/C=C(\C)C(=O)O[C@H]1[C@@H]2[C@H](C)C(=O)O[C@@H]2C[C@@H](C)[C@@H]2C=CC(=O)[C@]21C | > 10 | > 10 | > 10 | > 10 | –
25 | C=C1C(=O)O[C@@H]2C[C@@H](C)[C@@H]3C=CC(=O)[C@@]3(C)[C@@H](OC(=O)C=C(C)C)[C@H]12 | 2.6 | 0.8 | 1.5 | – | –
26 | C=C1C(=O)O[C@H]2C[C@@H](C)[C@@H]3[C@@H](OC(=O)C(C)C)C[C@@H](OC(=O)C(C)C)[C@@]3(C)C[C@H]12 | > 10 | > 10 | 6.5 | – | –
